Experimental data: ChEMBL document CHEMBL4715829, “Heterodimeric Rifampicin-Tobramycin conjugates break intrinsic resistance of Pseudomonas aeruginosa to doxycycline and chloramphenicol in vitro and in a Galleria mellonella in vivo model” (Eur J Med Chem, 2019)
≈ marks a conversion by molar mass, not a printed value.

Key:
Format in all cases: functional
Pseudomonas aeruginosa [1] = assay: Antibacterial activity against Pseudomonas aeruginosa 101243 assessed as fractional inhibitory concentration index in presence of chloramphenicol incubated for 18 hrs by broth microdilution assay
Pseudomonas aeruginosa [2] = assay: Antibacterial activity against Pseudomonas aeruginosa 91433 assessed as reduction in bacterial growth incubated for 18 hrs by broth microdilution assay
Pseudomonas aeruginosa [3] = assay: Antibacterial activity against wild type Pseudomonas aeruginosa PAO1 assessed as reduction in bacterial growth incubated for 18 hrs by broth microdilution assay
Staphylococcus aureus [4] = assay: Antibacterial activity against Staphylococcus aureus ATCC 29213 assessed as reduction in bacterial growth incubated for 18 hrs by broth microdilution assay
Enterococcus faecium = assay: Antibacterial activity against Enterococcus faecium ATCC 27270 assessed as reduction in bacterial growth incubated for 18 hrs by broth microdilution assay
Pseudomonas aeruginosa [5] = assay: Antibacterial activity against Pseudomonas aeruginosa 114228 assessed as reduction in bacterial growth incubated for 18 hrs by broth microdilution assay
Escherichia coli = assay: Antibacterial activity against Escherichia coli ATCC 25922 assessed as reduction in bacterial growth incubated for 18 hrs by broth microdilution assay
Staphylococcus aureus [6] = assay: Antibacterial activity against methicillin-resistance Staphylococcus aureus ATCC 33592 assessed as reduction in bacterial growth incubated for 18 hrs by broth microdilution assay
Pseudomonas aeruginosa [7] = assay: Antibacterial activity against Pseudomonas aeruginosa 262-101856 assessed as reduction in bacterial growth incubated for 18 hrs by broth microdilution assay
[8] = tested on: Stenotrophomonas maltophilia; assay: Antibacterial activity against Stenotrophomonas maltophilia CAN-ICU 62584 assessed as reduction in bacterial growth incubated for 18 hrs by broth microdilution assay
[9] = tested on: Staphylococcus epidermidis; assay: Antibacterial activity against methicillin-resistance Staphylococcus epidermidis CAN-ICU 61589 (CAZ>32) assessed as reduction in bacterial growth incubated for 18 hrs by broth microdilution assay
Pseudomonas aeruginosa [10] = assay: Antibacterial activity against Pseudomonas aeruginosa 100036 assessed as reduction in bacterial growth incubated for 18 hrs by broth microdilution assay
Pseudomonas aeruginosa [11] = assay: Antibacterial activity against Pseudomonas aeruginosa 262-101856 assessed as fractional inhibitory concentration index in presence of doxycycline incubated for 18 hrs by broth microdilution assay
Klebsiella pneumoniae = assay: Antibacterial activity against Klebsiella pneumoniae ATCC 13883 assessed as reduction in bacterial growth incubated for 18 hrs by broth microdilution assay
[12] = tested on: Staphylococcus epidermidis; assay: Antibacterial activity against methicillin-susceptible Staphylococcus epidermidis CANWARD 81388 assessed as reduction in bacterial growth incubated for 18 hrs by broth microdilution assay
Pseudomonas aeruginosa [13] = assay: Antibacterial activity against Pseudomonas aeruginosa 260-97103 assessed as fractional inhibitory concentration index in presence of chloramphenicol incubated for 18 hrs by broth microdilution assay
Pseudomonas aeruginosa [14] = assay: Antibacterial activity against Pseudomonas aeruginosa 91433 assessed as fractional inhibitory concentration index in presence of doxycycline incubated for 18 hrs by broth microdilution assay
Pseudomonas aeruginosa [15] = assay: Antibacterial activity against Pseudomonas aeruginosa 91433 assessed as fractional inhibitory concentration index in presence of chloramphenicol incubated for 18 hrs by broth microdilution assay
Pseudomonas aeruginosa [16] = assay: Antibacterial activity against Pseudomonas aeruginosa 260-97103 assessed as fractional inhibitory concentration index in presence of doxycycline incubated for 18 hrs by broth microdilution assay

SMILES	fractional inhibitory concentration index (FICI) (Pseudomonas aeruginosa [1])	MIC (Pseudomonas aeruginosa [2]) [µg/mL]	MIC (Pseudomonas aeruginosa [3]) [µg/mL]	MIC (Staphylococcus aureus [4]) [µg/mL]	MIC (Enterococcus faecium) [µg/mL]	MIC (Pseudomonas aeruginosa [5]) [µg/mL]	MIC (Escherichia coli) [µg/mL]	MIC (Staphylococcus aureus [6]) [µg/mL]	MIC (Pseudomonas aeruginosa [7]) [µg/mL]	MIC [8] [µg/mL]	MIC [9] [µg/mL]	MIC (Pseudomonas aeruginosa [10]) [µg/mL]	fractional inhibitory concentration index (FICI) (Pseudomonas aeruginosa [11])	MIC (Klebsiella pneumoniae) [µg/mL]	MIC [12] [µg/mL]	fractional inhibitory concentration index (FICI) (Pseudomonas aeruginosa [13])	fractional inhibitory concentration index (FICI) (Pseudomonas aeruginosa [14])	fractional inhibitory concentration index (FICI) (Pseudomonas aeruginosa [15])	fractional inhibitory concentration index (FICI) (Pseudomonas aeruginosa [16])
CO[C@H]1/C=C/O[C@@]2(C)Oc3c(C)c(O)c4c(O)c(c(/C=N/N5CCN(C)CC5)c(O)c4c3C2=O)NC(=O)/C(C)=C\C=C\[C@H](C)[C@H](O)[C@@H](C)[C@@H](O)[C@@H](C)[C@H](OC(C)=O)[C@@H]1C [RIFAMPIN]	1.5	16 (≈ 19.4 µM)	16 (≈ 19.4 µM)	≤ 0.25	≤ 0.25	16 (≈ 19.4 µM)	8 (≈ 9.72 µM)	> 128	512 (≈ 622 µM)	32 (≈ 38.9 µM)	≤ 0.25	32 (≈ 38.9 µM)	1.5	16 (≈ 19.4 µM)	≤ 0.25	–	–	–	–
NC[C@H]1O[C@H](O[C@H]2[C@H](O)[C@@H](O[C@H]3O[C@H](CO)[C@@H](O)[C@H](N)[C@H]3O)[C@H](N)C[C@@H]2N)[C@H](N)C[C@@H]1O [TOBRAMYCIN]	1.5	16 (≈ 34.2 µM)	1 (≈ 2.14 µM)	0.5 (≈ 1.07 µM)	16 (≈ 34.2 µM)	8 (≈ 17.1 µM)	0.5 (≈ 1.07 µM)	0.5 (≈ 1.07 µM)	1020 (≈ 2190 µM)	> 512	2 (≈ 4.28 µM)	128 (≈ 274 µM)	<=1.5	≤ 0.25	≤ 0.25	1	1.5	1.5	1.5
